Data reported in publication PMC12612973, “Inhibition of Human Amylin Aggregation: In Silico and In Vitro Studies” (ACS Omega, 2025).
Values joined by “and” are separate entries in the source; they are usually repeats but may differ in a detail not shown here. Equal values may be shown once.

Legend:
human amylin (hIAPP) [1] = biological target: T1, human amylin (hIAPP) (Homo sapiens, UniProt P10997); test: Kinetic analysis of amylin aggregation (ThT, two-step autocatalytic aggregation model); assay type: biochemical; conditions: mean ± S.D.; for t 0 (time point when the aggregation starts): 10% of highest ThT fluorescence; for t 1/2 (aggregation halftime): 50% of highest ThT fluorescence; for t 1 (aggregation endpoint): 90% of highest ThT fluorescence; for k / k e (elongation constant) / k n (nucleation constant) / ρ (ratio of kn to k): ThT data, autocatalytic aggregation model
T1 construct: purchased Bachem USA
T1 sequence (P10997 34-70 limits assumed): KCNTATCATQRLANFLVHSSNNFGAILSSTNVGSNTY
Method: Kinetic analysis was performed according to the model of autocatalytic aggregation. According to Sabaté et al., aggregation is a two-step process, comprising nucleation (described by the k n constant) and fibrillation phases (represented by the k e constant). Two constants (k n and k e) are calculated using the eq : 5 f=ρ{e^[(1+ρ)kt]−1}/{1+ρe^[(1+ρ)kt]} where k = k e a (where a represents the initial concentration of the aggregating peptide), f stands for a fraction of the fibrillar form in the system, and ρ denotes the dimensionless ratio of k n to k. The parameters k and ρ were calculated first, then k n and k e.
Data were normalized as a fraction of the highest fluorescence from the three trials and fitted into the model of autocatalytic aggregation. The same procedure was repeated for the remaining trials. The second calculation aimed to find the time parameters of the aggregation process: t 0 (time point when the aggregation starts), t 1/2 (aggregation halftime), and t 1 (aggregation endpoint). t 0, t 1/2, and t 1 were calculated as 10%, 50%, and 90% of the highest fluorescence measurements from the three trials, respectively. All calculations were performed using GraphPad Prism 9.5.1, Statistica 13.3.721.1, and Microsoft Excel 2304.

human amylin (hIAPP) [2] = biological target: T1, human amylin (hIAPP); test: Thioflavin T (ThT) fluorescence assay of amylin aggregation; assay type: biochemical; conditions: for ThT inhibition % (mean ± SEM): compound 10 μM, amylin 15 μM, 36 h incubation, 3 trials; for inhibition at 10 µM: read-out: ThT inhibition % (mean ± SEM), compound 10 μM, amylin 15 μM, 36 h incubation, 3 trials
Method: (§1) A stock solution of amylin (1 mM) (purchased from Bachem USA), peptide sequence: […] amide (with disulfide bond between Cys2 and Cys7), was prepared in 100% hexafluoroisopropyl alcohol (HFIP) (purchased from Sigma-Aldrich) and stored at −20 °C. , Aliquots of amylin peptide were filtered through a 0.22 μm filter from the stock solution and freeze-dried. For kinetic experiments, 15 μM of amylin was prepared in 50 mM Tris-HCl buffer (pH 7.4), as investigated in previous studies by Chaari et al., , Samples of amylin were prepared in the presence or absence of inhibitors. Each compound was dissolved in DMSO and further diluted with the buffer used to solubilize the amylin. The final mixture contained 15 μM amylin, 10 μM of the test compound, 2% DMSO or 15 μM amylin, and 2% DMSO without the compound (negative control). Also 15 μM amylin, 10 μM of oleuropein aglycone and 2% DMSO was used as a positive control. The prepared solutions were incubated under physiological conditions (pH 7.4 and 37 °C) for amylin aggregation. Samples were incubated for 36 h to test for amylin aggregation, and measurements were conducted at different time points.
Amylin aggregation was monitored by characteristic changes in Thioflavin T (ThT) fluorescence intensity. A ThT stock solution (15 μM) was prepared in deionized water at pH 7.4. The amylin samples were mixed with the ThT solution and allowed to incubate. ThT fluorescence was measured using the PerkinElmer model LS 55 fluorescence spectrophotometer (PerkinElmer, USA), with an excitation wavelength of 440 nm and an emission wavelength of 480 nm. ,− The emission and excitation slits were set to 5 nm, and a 1 cm cuvette was used for all experiments. Nonspecific background fluorescence was subtracted from the samples using appropriate blanks in the absence of proteins. Each experiment was performed in triplicate.

human amylin (hIAPP) [3] = biological target: T1, human amylin (hIAPP); test: as above; assay type: biochemical; conditions: read-out: IC50 of amylin aggregation inhibition
human amylin (hIAPP) [4] = biological target: T1, human amylin (hIAPP); test: Dynamic light scattering (DLS) assay of amylin aggregation; assay type: biochemical; conditions: 36 h incubation; for inhibition at 10 µM: compound 10 μM, amylin 15 μM, 3 trials, read-out: DLS inhibition % (mean ± SEM)
Method: as §1
DLS (Zetasizer, Malvern) was used at a wavelength of 633 nm to measure the average diffusion coefficient distribution of amylin particles and the aggregation percentage. Samples were diluted 10-fold, and 50 μL was placed into a 96-well plate. The total light scattering intensity at a 90° angle was collected using a 10 s averaging acquisition time. Particle translational diffusion coefficients were calculated from autocorrelated light intensity data (usually 30–40 points) and converted to the hydrodynamic radius (R h) using the Stokes–Einstein equation. A distribution plot of intensity versus R h was calculated using the Sedfit 9.3 analysis software, and intensity-weighted mean R h values were obtained from each peak.

Pancreatic INS-1E cells = test: MTT cytotoxicity assay of amylin aggregates aged with or without inhibitors; assay type: cell-based
Method: In this study, we utilized Pancreatic INS-1E cells (Department of Cell Physiology and Metabolism, University Medical Center, Switzerland) due to their close physiological similarity to native β-cells, making them highly relevant to our experimental objectives. Pancreatic INS-1E cells were grown in RPMI 1640 medium, supplemented with 2 mM glutamine, 5% fetal calf serum, 10 mM HEPES (pH 7.4), 1 mM sodium pyruvate, 50 μM 2-mercaptoethanol, 100 units/mL penicillin, and 0.1 mg/mL streptomycin. The culturing environment was maintained at 37 °C, 5% CO2, pH 7.4.
The toxicity of human amylin aggregates in the presence or absence of different compounds in the presence of 2% DMSO was assessed by the 3-(4,5-dimethylthiazol-2-yl)-2,5-diphenyltetrazolium bromide (MTT) reduction assay. The cells were cultured and then seeded into 96-well plates and grown for 24 h prior to exposure to different intermediates of amylin or a mixture of amylin with the MTDLs. The final amylin concentration within the culture medium was 5 μM. Cell viability was expressed as the percentage of MTT reduction, using cells treated with the same buffer volume as a reference (100% MTT reduction). The values (averages ± S.D.) were obtained from three independent experiments.

C/C=C1/C(O)OC=C(C(=O)OC)[C@H]1CC(=O)OCCc1ccc(O)c(O)c1 (mixture of isomers) [Oleuropein aglycone, reference compound]
t 0 (time point when the aggregation starts) (human amylin (hIAPP) [1]): 10.76 ± 0.25 h
t 1/2 (aggregation halftime) (human amylin (hIAPP) [1]): 19.67 ± 0.31 h
t 1 (aggregation endpoint) (human amylin (hIAPP) [1]): 28.83 ± 0.30 h
k (human amylin (hIAPP) [1]): 0.2366 ± 0.0075 h^–1
k e (elongation constant) (human amylin (hIAPP) [1]): 15773 ± 650 M^–1h^–1
k n (nucleation constant) (human amylin (hIAPP) [1]): 0.0022 ± 0.0005 h^–1
ρ (ratio of kn to k) (human amylin (hIAPP) [1]): 0.0093 ± 0.0002
k e (elongation constant) (human amylin (hIAPP) [1]; listed as oleuropein aglycone): 15773 M^–1h^–1
ThT inhibition % (mean ± SEM) (human amylin (hIAPP) [2]): 82.3 ± 2.0%
IC50 (human amylin (hIAPP) [3]): 1 µM

CCCC(C)N1CCN(CC(O)CNCc2ccc(OC)cc2)CC1 (stereo not drawn) [Compound 1]
inhibition at 10 µM (human amylin (hIAPP) [2]): 13.1 ± 1.8%
inhibition at 10 µM (human amylin (hIAPP) [4]): 19.7 ± 2%

COc1ccc(CNCC(O)CN2CCN(c3ccccc3)CC2)cc1 (stereo not drawn) [Compound 2]
inhibition at 10 µM (human amylin (hIAPP) [2]): 5 ± 0.7%
inhibition at 10 µM (human amylin (hIAPP) [4]): 6.9 ± 0.5%

COc1ccc(CNCC(O)CN2CCN(Cc3ccccc3)CC2)cc1 (stereo not drawn) [Compound 3]
inhibition at 10 µM (human amylin (hIAPP) [2]): 8.8 ± 4.9%
inhibition at 10 µM (human amylin (hIAPP) [4]): 17.9 ± 1.4%

OC(CNCc1ccccc1)CN1CCN(C(c2ccccc2)c2ccccc2)CC1 (stereo not drawn) [Compound 4]
inhibition at 10 µM (human amylin (hIAPP) [2]): 15.5 ± 0.7%
inhibition at 10 µM (human amylin (hIAPP) [4]): 20 ± 1.9%

COc1ccc(CNCC(O)CN2CCN(C(c3ccccc3)c3ccccc3)CC2)cc1 (stereo not drawn) [Compound 5]
inhibition at 10 µM (human amylin (hIAPP) [2]): 12.1 ± 1.1%
inhibition at 10 µM (human amylin (hIAPP) [4]): 19.5 ± 2.2%

COc1ccc(CNCC(O)CN2CCN(C(c3ccc(F)cc3)c3ccc(F)cc3)CC2)cc1 (stereo not drawn) [Compound 7]
inhibition at 10 µM (human amylin (hIAPP) [2]): 17 ± 0.7%
inhibition at 10 µM (human amylin (hIAPP) [4]): 18.6 ± 1.4%

CCCC(C)N1CCN(CCC(O)CNCc2ccc(OC)cc2)CC1 (stereo not drawn) [Compound 8]
inhibition at 10 µM (human amylin (hIAPP) [2]): 20.8 ± 1%
inhibition at 10 µM (human amylin (hIAPP) [4]): 20.1 ± 2%

COc1ccc(CNCC(O)CCN2CCN(c3ccccc3)CC2)cc1 (stereo not drawn) [Compound 9]
inhibition at 10 µM (human amylin (hIAPP) [2]): 4.3 ± 0.7%
inhibition at 10 µM (human amylin (hIAPP) [4]): 10 ± 0.5%

COc1ccc(CNCC(O)CCN2CCN(Cc3ccccc3)CC2)cc1 (stereo not drawn) [Compound 10]
inhibition at 10 µM (human amylin (hIAPP) [2]): 31.1 ± 0.9%
inhibition at 10 µM (human amylin (hIAPP) [4]): 27.8 ± 3%

OC(CCN1CCN(C(c2ccccc2)c2ccccc2)CC1)CNCc1ccccc1 (stereo not drawn) [Compound 11]
inhibition at 10 µM (human amylin (hIAPP) [2]): 20.8 ± 0.8%
inhibition at 10 µM (human amylin (hIAPP) [4]): 19 ± 1.8%

COc1ccc(CNCC(O)CCN2CCN(C(c3ccccc3)c3ccccc3)CC2)cc1 (stereo not drawn) [Compound 12]
inhibition at 10 µM (human amylin (hIAPP) [2]): 11.9 ± 0.7%
inhibition at 10 µM (human amylin (hIAPP) [4]): 20.7 ± 2%

COc1ccc(CNCC(O)CCN2CCN(C(c3ccc(F)cc3)c3ccc(F)cc3)CC2)cc1 (stereo not drawn) [Compound 14]
inhibition at 10 µM (human amylin (hIAPP) [2]): 5 ± 4.4%
inhibition at 10 µM (human amylin (hIAPP) [4]): 7.8 ± 0.5%

OC(CNCc1ccccc1)CNCC(c1ccccc1)c1ccccc1 (stereo not drawn) [Compound 15]
inhibition at 10 µM (human amylin (hIAPP) [2]): 37.4 ± 0.4%
inhibition at 10 µM (human amylin (hIAPP) [4]): 25 ± 2.5%

OC(CNCCC(c1ccccc1)c1ccccc1)CNCc1ccccc1 (stereo not drawn) [Compound 16]
t 0 (time point when the aggregation starts) (human amylin (hIAPP) [1]): 11.03 ± 0.22 h
t 1/2 (aggregation halftime) (human amylin (hIAPP) [1]): 18.22 ± 0.28 h
t 1 (aggregation endpoint) (human amylin (hIAPP) [1]): 25.52 ± 0.37 h
k (human amylin (hIAPP) [1]): 0.2996 ± 0.0048 h^–1
k e (elongation constant) (human amylin (hIAPP) [1]): 19973 ± 320 M^–1h^–1
k n (nucleation constant) (human amylin (hIAPP) [1]): 0.0012 ± 0.0001 h^–1
ρ (ratio of kn to k) (human amylin (hIAPP) [1]): 0.0042 ± 0.0003
inhibition at 10 µM (human amylin (hIAPP) [2]): 58.8 ± 0.7%
IC50 (human amylin (hIAPP) [3]): 3.1 µM
average particle size of amylin by DLS (human amylin (hIAPP) [4]; amylin + compound): 10 nm
inhibition at 10 µM (human amylin (hIAPP) [4]): 77.9 ± 6%

CC(C)(C)c1cccc(CNCC(O)CNCC(c2ccccc2)c2ccccc2)c1 (stereo not drawn) [Compound 17]
t 0 (time point when the aggregation starts) (human amylin (hIAPP) [1]): 13.13 ± 1.09 h
t 1/2 (aggregation halftime) (human amylin (hIAPP) [1]): 21.25 ± 0.20 h
t 1 (aggregation endpoint) (human amylin (hIAPP) [1]): 29.48 ± 1.02 h
k (human amylin (hIAPP) [1]): 0.2687 ± 0.0374 h^–1
k e (elongation constant) (human amylin (hIAPP) [1]): 17913 ± 2489 M^–1h^–1
k n (nucleation constant) (human amylin (hIAPP) [1]): 0.0010 ± 0.0006 h^–1
ρ (ratio of kn to k) (human amylin (hIAPP) [1]): 0.0040 ± 0.0028
ThT inhibition % (mean ± SEM) (human amylin (hIAPP) [2]): 88.1 ± 0.9%
inhibition at 10 µM (human amylin (hIAPP) [2]): > 88%
IC50 (human amylin (hIAPP) [3]): 3.65 µM
inhibition at 10 µM (human amylin (hIAPP) [4]): 99 ± 6.5%

OC(CCNCC(c1ccccc1)c1ccccc1)CNCc1ccccc1 (stereo not drawn) [Compound 19]
inhibition at 10 µM (human amylin (hIAPP) [2]): 33.7 ± 1.1%
inhibition at 10 µM (human amylin (hIAPP) [4]): 27.5 ± 3%

OC(CCNCCC(c1ccccc1)c1ccccc1)CNCc1ccccc1 (stereo not drawn) [Compound 20]
inhibition at 10 µM (human amylin (hIAPP) [2]): 12.6 ± 0.4%
inhibition at 10 µM (human amylin (hIAPP) [4]): 20.4 ± 2.5%

CC(C)(C)c1cccc(CNCC(O)CCNCC(c2ccccc2)c2ccccc2)c1 (stereo not drawn) [Compound 21]
t 0 (time point when the aggregation starts) (human amylin (hIAPP) [1]): 9.54 ± 0.29 h
t 1/2 (aggregation halftime) (human amylin (hIAPP) [1]): 18.66 ± 0.56 h
t 1 (aggregation endpoint) (human amylin (hIAPP) [1]): 28.19 ± 1.42 h
k (human amylin (hIAPP) [1]): 0.2273 ± 0.0221 h^–1
k e (elongation constant) (human amylin (hIAPP) [1]): 15155 M^–1h^–1 and 15155 ± 1477 M^–1h^–1
k n (nucleation constant) (human amylin (hIAPP) [1]): 0.003 h^–1 and 0.0032 ± 0.0007 h^–1
ρ (ratio of kn to k) (human amylin (hIAPP) [1]): 0.0145 ± 0.0044
ThT inhibition % (mean ± SEM) (human amylin (hIAPP) [2]): 90.8 ± 1.4%
inhibition at 10 µM (human amylin (hIAPP) [2]): > 88%
IC50 (human amylin (hIAPP) [3]): 3.53 µM
inhibition at 10 µM (human amylin (hIAPP) [4]): 99.2 ± 6%
cell viability difference versus the sample with amylin fibrils (Pancreatic INS-1E cells; INS-1E cells 24 h, amylin aggregates aged 36 h with 2.92 μM compound 18 or 3.31 μM compound 21): approximately 30 % points
effect on INS-1E cell viability in presence of amylin (Pancreatic INS-1E cells; INS-1E cells cultured with the MTDLs): retained cell viability
